What was measured:
[1] = known ability; cited from earlier work
[2] = test system: P-glycoprotein; test: Functionality of the P-glycoprotein: passage of rhodamine 123 with or without Zosuquidar, primary murine devices; type: in vitro ADME, mouse
Procedure: This functionality test is carried out with rhodamine 123, because it is known that this molecule as a substrate for the P-glycoprotein is expelled by the P-glycoprotein into the luminal compartment, which thus limits its passage through the device. The culture media are replenished: 1 mL in the abluminal compartment and 250 μL in the luminal compartment either containing or not containing the Zosuquidar inhibitor of P-glycoprotein P at 5 μM (Dantzig et al. 1996). The devices are incubated for 2 hrs in the incubator. Then, 250 μL of medium containing 2 μM rhodamine 123 with or without 5 μM Zosuquidar are added into the luminal compartment and incubated for 1 hr in the incubator. […] The reading of the fluorescence intensity is done on the same apparatus as for the permeability test (described above). The λex of the rhodamine is 500 nm and the λem is 524 nm.
Indeed it is known that rhodamine 123 as a substrate for glycoprotein P is expelled by the glycoprotein P into the luminal compartment, which limits the passage thereof through the device. Zosuquidar is an inhibitor of P-glycoprotein, therefore its use should limit the efflux of rhodamine 123 into the luminal compartment.
As in Example 4, the passage of rhodamine 123 in the presence or absence of Zosuquidar was studied.

[3] = test system: P-gp glycoprotein; test: Functionality of P-glycoprotein in the commercially available device (Rhodamine 123 with or without Zosuquidar); type: in vitro ADME, rat; conditions: commercially available model
Procedure: Here again, the functionality of the commercially available model was evaluated by studying the passage of Rhodamine 123 in the presence or absence of the specific inhibitor of the P-gp glycoprotein, Zosuquidar.

[4] = test system: P-gp efflux pump; test: Functionality of P-glycoprotein on murine devices with immortalised cell lines

## OC[C@H]1O[C@@](CO)(O[C@H]2O[C@H](CO)[C@@H](O)[C@H](O)[C@H]2O)[C@@H](O)[C@@H]1O [SUC, Sucrose]
[1]
  Passage through the HEB: +

## rhodamine 123
[2]; 24- and 96-well format devices
  passage of Rhodamine123 to the luminal side after addition into the abluminal compartment: comparable to cell-free HEBs
[2]; 24- and 96-well format devices, added luminal
  passage of Rhodamine123 to the abluminal side: passes very little on to the abluminal side
[2]; device WT, 1 hr incubation
  decrease of the passage of rhodamine 123 to the abluminal compartment as compared to the device without cells: 72.6%
[3]; regardless of the side where it is deposited
  efflux of Rhodamine123: 97%
[4]; 12-, 24-, and 96 well plate formats
  limitation of the passage of Rhodamine 123 on the abluminal side: more than 60%

## O[C@@H](COc1cccc2ncccc12)CN1CCN([C@@H]2c3ccccc3[C@@H]3[C@H](c4ccccc42)C3(F)F)CC1 [Zosuquidar]
[2]; 5 μM Zosuquidar, device WT
  inhibition of the efflux (of rhodamine 123) by the specific P-glycoprotein inhibitor: 57.3%
[2]; 24- and 96-well format devices
  effect on P-gp functionality: inhibited
[3]
  effect of Zosuquidar on Rhodamine 123 passage: no effect
[1]
  Passage through the HEB: −
[4]; all the formats
  effect of the specific Glycoprotein P inhibitor: does not show any effect

## Clc1ccc(C(c2ccccc2Cl)C(Cl)Cl)cc1 (centres unmarked) [MITO, Mitotane]
[1]
  Passage through the HEB: −

## NCCc1ccc(O)c(O)c1 [DA, Dopamine]
[1]
  Passage through the HEB: −

## O=C1CN=C(c2ccccn2)c2cc(Br)ccc2N1 [BROMO, Bromazepam]
[1]
  Passage through the HEB: +
